# Measurements as given in patent US11534404B2, “Multilayer beads for pharmaceutical use” (Sucampo AG, priority 2016, dated 2022).
# Key:
# Type in all cases: physicochemical
# [1] = Lubiprostone-excipient contact stability study (Example 1A); conditions: excipient:lubiprostone approx 50:50; 55° C. 10 days; HPLC
# Method: Test samples were prepared for the study in approximately 50:50 proportion using various excipients and lubiprostone drug. These prepared mixtures were then placed on accelerated stress stability conditions at 55° C. for 10 days. After 10 days, these samples were analyzed by a suitable HPLC method to determine assay (the amount of remaining Lubiprostone) and impurities generated due to degradation of lubiprostone.
# [2] = Lubiprostone-excipient contact stability study, mechanical mixing of powder (Example 1C); conditions: for % of the initial: 55° C. 10 d, remaining lubiprostone by HPLC
# Method: Test samples were prepared by direct (mechanical) mixing of various excipients and lubiprostone drug in approximately 50:50 and 99:1 ratios. The mechanical mixing of lubiprostone and excipients was conduct by admixing them using a conventional mortar. The prepared mixtures were then placed under accelerated stress stability conditions at 55° C. for 10 days. After 10 days, these samples were analyzed by HPLC to determine the amount of remaining lubiprostone and impurities generated as a result of the degradation of lubiprostone.
# [3] = Lubiprostone-excipient contact stability study, solid solution (Example 1B); conditions: for % of the initial: 55° C. 10 d, remaining lubiprostone by HPLC
# Method: Additional test samples were prepared for the study by admixing various excipients and lubiprostone drug in ratios of about 50:50 and about 99:1. Solid solutions were prepared by mixing lubiprostone/MeCN and Excipient/MeCN, combining these mixtures and then removing the solvent by evaporation. The prepared mixtures were then placed under accelerated stress stability conditions at 55° C. for 10 days. After 10 days, these samples were analyzed by HPLC method to determine the amount of remaining lubiprostone and impurities generated as a result of the degradation of lubiprostone.
# [4] = Mechanical mixing of powder 50:50
# [5] = Mechanical mixing of powder 99:1
structure (smiles),measurement,setting,value
"CCCCC(F)(F)[C@@]1(O)CC[C@H]2[C@@H](CC(=O)[C@@H]2CCCCCCC(=O)O)O1 [Lubiprostone, (−)-7-[(2R,4aR,5R,7aR)-2-(1,1-difluoropentyl)-2-hydroxy-6-oxooctahydrocyclopenta[b]pyran-5-yl]heptanoic acid]",Assay (% of initial),[1],42.3%
same,Total Impurities,[1],59.0%
same,55° C. 10 d Impurities,[2]; [4],24.5
same,% of the initial,[2]; [4],55.6%
same,55° C. 10 d Impurities,[2]; [5],24.5
same,% of the initial,[2]; [5],55.6%
same,55° C. 10 d Impurities,[3]; Solid solution 50:50,33.5
same,% of the initial,[3]; Solid solution 50:50,44.4%
same,55° C. 10 d Impurities,[3]; Solid solution 99:1,35.5
same,% of the initial,[3]; Solid solution 99:1,44.4%
